Source: US20230364111A1 (priority 2020, published 2023)
Entries after “also recorded” stand apart in the source; their conditions may differ. Read-outs that look alike come from different tables or passages of the source.

Columns and labels:
SARS-CoV-2 Wk-521 strain = assay: SARS-CoV-2 infection assay, viral RNA in culture supernatant (VeroE6/TMPRSS2 cells); type: cell-based; details: for production of viral RNA with signaling pathway inhibitors: 10 μM; for viral RNA in the culture supernatant: natural oxysterols up to 30 μM, semi-synthetic up to 15 μM; for anti-SARS-CoV-2 activity: cell-based assay, VeroE6/TMPRSS2; for SARS-CoV-2 propagation in cultured cells: statement in words
SARS-CoV-2 [1] = assay: SARS-CoV-2-induced cytopathic effect (CPE) in VeroE6/TMPRSS2 cells; type: cell-based; details: for virus-induced CPE: 48 h post-inoculation, 10 μM RDV, 30 μM cholesterol, 30 μM 7-KC, 10 μM Oxy133, 10 μM Oxy210, MOI 0.001; for SARS-CoV-2-induced cytopathic effect (CPE): remdesivir 20 uM, 7-ketocholesterol 40 uM, 27-hydroxycholesterol 20 uM
in vitro [2] = details: human
in vitro [3] = details: African green monkey
[4] = system: SARS-CoV-2 (isolate USA WA1/2020); assay: SARS-CoV-2 infection of Calu-3 cells (dsRNA+ cells, automated microscopy); type: cell-based; details: Severe acute respiratory syndrome coronavirus 2, Calu-3, 48 h
Experimental: FIGS. 12A-12C depict dose-response curves for Oxy232. (FIG. 12A) Secreted viral RNA in the VeroE6 culture supernatant 24 h post-inoculation was quantified by real-time RT-PCR. Cell viability of Oxy232 treated cells evaluated with an MTT assay. (FIG. 12B) Secreted viral RNA of 3 SARS-CoV-2 strains in the VeroE6 culture supernatant 24 h post-inoculation was quantified by real-time RT-PCR. (FIG. 12C) Calu-3 (ATCC) cells were pretreated with Oxy232 for 2 hours prior to continuous infection with SARS-CoV-2 (isolate USA WA1/2020) at MOI=0.5. 48 h post-infection, cells were fixed, immune-strained, and imaged by automated microscopy for infection (dsRNA+ cells/total cell number) and cell number.
According to a previously published report (Ohashi et al., Identification of Anti-Severe Acute Respiratory Syndrome-Related Coronavirus 2 (SARS-CoV-2) Oxysterol Derivatives In Vitro. Int J Mol Sci. 2021; 22(6):3163. PMCID: PMC8003796) inventors have tested a collection of naturally occurring and semisynthetic oxysterol derivatives in a SARS-CoV-2 cell culture infection assay in VeroE6/TMPRSS2 cells. […] See, Ohashi et al., Int J Mol Sci. 2021; 22(6):3163 and Dittmar et al. Drug repurposing screens reveal cell-type-specific entry pathways and FDA-approved drugs active against SARS-Cov-2. Cell Rep. […] PMCID: PMC7985926. […] Without wishing to be bound by a theory, biological activities of oxysterols, including measures of cell viability, can heavily depend on in vitro assay conditions, such as the fetal bovine serum concentration or the duration of pretreatment with the compounds, among other factors, that may not translate to the in vivo safety of the compounds.

SARS-CoV-2 [5] = assay: Time of addition assay, SARS-CoV-2 viral RNA; type: cell-based; details: 15 μM RDV, 15 μM CLQ, 10 μM Oxy210, 10 μM Oxy133
SARS-CoV-2 [6] = type: cell-based
[7] = MTT assay, 24 h, VeroE6/TMPRSS2 cells
[8] = Severe acute respiratory syndrome coronavirus 2, VeroE6/TMPRSS2, 24 h, SARS-CoV-2 viral RNA in culture supernatant, 24 h post-inoculation, VeroE6/TMPRSS2 cells, read-out: IC90
[9] = Severe acute respiratory syndrome coronavirus 2, SARS-CoV-2 viral RNA in culture supernatant, 24 h post-inoculation, VeroE6/TMPRSS2 cells, read-out: IC50
[10] = SARS-CoV-2 viral RNA in culture supernatant, 24 h post-inoculation, VeroE6/TMPRSS2 cells, read-out: IC50
[11] = SARS-CoV-2 viral RNA in culture supernatant, 24 h post-inoculation, VeroE6/TMPRSS2 cells, read-out: IC90

| SMILES | CC50 (VeroE6/TMPRSS2 cells; [7]) [µM] | viral RNA in the culture supernatant (SARS-CoV-2 Wk-521 strain; 24 h post-inoculation) | IC90 (SARS-CoV-2 Wk-521 strain; [8]) [µM] | IC50 (SARS-CoV-2 Wk-521 strain; [9]) [µM] | anti-SARS-CoV-2 activity (SARS-CoV-2 Wk-521 strain) | SARS-CoV-2 propagation in cultured cells (SARS-CoV-2 Wk-521 strain) | also measured |
| --- | --- | --- | --- | --- | --- | --- | --- |
| NC(=O)c1ccc(-c2nc(-c3ccc4c(c3)OCO4)c(-c3ccccn3)[nH]2)cc1 [SB431542, reference compound] |  |  |  |  |  |  | production of viral RNA with signaling pathway inhibitors (SARS-CoV-2 Wk-521 strain; 24 h post-inoculation): did not significantly inhibit the production of viral RNA; also recorded: lack of antiviral activity |
| CC(C)CCC[C@@H](C)[C@H]1CC[C@H]2[C@@H]3CC=C4C[C@@H](O)CC[C@]4(C)[C@H]3CC[C@]12C [Cholesterol, reference compound] | > 30 | did not show apparent reductions in viral RNA | > 30 | > 30 |  |  | virus-induced CPE (SARS-CoV-2 [1]): but not cholesterol, reduced the SARS-CoV-2-induced CPE |
| CS(=O)(=O)c1ccc(C(=O)Nc2ccc(Cl)c(-c3ccccn3)c2)c(Cl)c1 [GDC0449, reference compound] |  |  |  |  |  |  | production of viral RNA with signaling pathway inhibitors (SARS-CoV-2 Wk-521 strain; 24 h post-inoculation): did not decrease the viral RNA levels; also recorded: lack of antiviral activity |
| CC(C)CC[C@@H](O)[C@@H](C)[C@H]1CC[C@H]2[C@@H]3CC=C4C[C@@H](O)CC[C@]4(C)[C@H]3CC[C@]12C [22(R)-OHC, 22(R)-hydroxycholesterol, reference compound] | > 30 |  | > 30 | 13.2 | modest anti-SARS-CoV-2 activities | substantially inhibited SARS-CoV-2 propagation |  |
| CC(C)CC[C@H](O)[C@@H](C)[C@H]1CC[C@H]2[C@@H]3CC=C4C[C@@H](O)CC[C@]4(C)[C@H]3CC[C@]12C [22(S)-OHC, 22(S)-hydroxycholesterol, reference compound] | > 30 | did not show apparent reductions in viral RNA | > 30 | > 30 |  |  |  |
| CCC(CC)COC(=O)[C@H](C)N[P@](=O)(OC[C@H]1O[C@@](C#N)(c2ccc3c(N)ncnn23)[C@H](O)[C@@H]1O)Oc1ccccc1 [RDV, remdesivir, reference compound] |  |  | 2.5 | 1.5 |  |  | CC50 (in vitro [2]): > 10 µM; CC50 (in vitro [3]): > 10 µM; CC50 (VeroE6/TMPRSS2 cells; read-out: CC50 (VeroE6), VeroE6): > 10 µM; IC50 ([4]; read-out: IC50 (Calu-3)): 0.08 µM; IC90 ([4]; read-out: IC90 (Calu-3)): 0.16 µM; IC50 (SARS-CoV-2 Wk-521 strain; Severe acute respiratory syndrome coronavirus 2, Vero C1008, read-out: IC50 (VeroE6)): 1.5 µM; IC90 (SARS-CoV-2 Wk-521 strain; Severe acute respiratory syndrome coronavirus 2, Vero C1008, read-out: IC90 (VeroE6), SARS-CoV-2, VeroE6): 1.5 µM |
| CCN(CC)CCCC(C)Nc1ccnc2cc(Cl)ccc12 (stereo not shown) [CLQ, chloroquine, reference compound] |  |  |  |  |  |  | viral RNA, compound present at entry (SARS-CoV-2 [5]; 1 h inoculation plus 2 h): showed the most inhibitory effect |
| CC(C)CCC[C@@H](C)[C@H]1CC[C@H]2[C@@H]3C(=O)C=C4C[C@@H](O)CC[C@]4(C)[C@H]3CC[C@]12C [Oxy 7-KC, 7-ketocholesterol, reference compound] | > 30 |  | > 30 | 14.5 | modest anti-SARS-CoV-2 activities | substantially inhibited SARS-CoV-2 propagation | SARS-CoV-2 propagation / spread of infection (viral N protein, immunofluorescence) (SARS-CoV-2 [6]): reduced; virus-induced CPE (SARS-CoV-2 [1]): reduced the SARS-CoV-2-induced CPE; SARS-CoV-2-induced cytopathic effect (CPE) (SARS-CoV-2 [1]; 48 h, VeroE6/TMPRSS2): inhibited SARS-CoV-2-induced cytopathic effect |
| CC(C)CCC[C@@H](C)[C@H]1CC[C@H]2[C@@H]3CC=C4[C@@H](O)[C@@H](O)CC[C@]4(C)[C@H]3CC[C@]12C [Oxy 4-beta-OHC, 4beta-hydroxysterol, reference compound] | > 30 | did not show apparent reductions in viral RNA |  |  |  |  | IC50 (SARS-CoV-2 Wk-521 strain; [10]): > 30 µM; IC90 (SARS-CoV-2 Wk-521 strain; [11]): > 30 µM |
| CC(C)[C@@H](O)CC[C@@H](C)[C@H]1CC[C@H]2[C@@H]3CC=C4C[C@@H](O)CC[C@]4(C)[C@H]3CC[C@]12C [24(S)-OHC, 24(S)-hydroxycholesterol, reference compound] | > 30 |  | > 30 | 1.3 | modest anti-SARS-CoV-2 activities | substantially inhibited SARS-CoV-2 propagation |  |
| C[C@]12CC[C@H](O)C[C@@H]1CC[C@@H]1[C@@H]2CC[C@@]2(C)[C@H]1CC[C@@H]2[C@](C)(O)CCc1ccc(F)cc1 [Oxy186, (3S,5S,8R,9S,10S,13S,14S,17S)-17-((R)-4-(4-fluorophenyl)-2-hydroxybutan-2-yl)-10,13-dimethylhexadecahydro-1H-cyclopenta[a]phenanthren-3-ol] | > 15 | reduced viral RNA level in a dose-dependent manner | > 15 | 7.4 |  |  | SARS-CoV-2-induced cytopathic effect (SARS-CoV-2 [1]; oxy8 7.5 uM, oxy16 20 uM, oxy186 20 uM, oxy210 10 uM, 48 h, VeroE6/TMPRSS2): protected cells from cytopathic effect; cytotoxicity / cell viability (VeroE6/TMPRSS2 cells; MTT assay, VeroE6/TMPRSS2 cells): No significant cytotoxicity; maximum reduction in viral RNA as compared to control (SARS-CoV-2 Wk-521 strain; at 12 μM): 83% |
| C[C@@H](CO)CCC[C@@H](C)[C@H]1CC[C@H]2[C@@H]3CC=C4C[C@@H](O)CC[C@]4(C)[C@H]3CC[C@]12C [Oxy 27-OHC, 27-hydroxycholesterol, reference compound] | > 30 |  | > 30 | 3.5 | modest anti-SARS-CoV-2 activities | substantially inhibited SARS-CoV-2 propagation | SARS-CoV-2-induced cytopathic effect (CPE) (SARS-CoV-2 [1]; 48 h, VeroE6/TMPRSS2): inhibited SARS-CoV-2-induced cytopathic effect |
| CCCCCC[C@](C)(O)[C@H]1CC[C@H]2[C@@H]3C[C@H](O)[C@H]4C[C@@H](O)CC[C@]4(C)[C@H]3CC[C@@]21C [Oxy133, (3S,5S,6S,8R,9S,10R,13S,14S,17S)-17-((S)-2-hydroxyoctan-2-yl)-10,13-dimethyl hexadecahydro-1H-cyclopentalalphenanthrene-3,6-diol] | > 15 | did not show antiviral activity up to 15 μM |  |  |  |  | SARS-CoV-2 propagation / spread of infection (viral N protein, immunofluorescence) (SARS-CoV-2 [6]): blocked when treated with Oxy210 but not Oxy133; virus-induced CPE (SARS-CoV-2 [1]): blocked when treated with Oxy210 but not Oxy133; IC50 (SARS-CoV-2 Wk-521 strain; [10]): > 15 µM; IC90 (SARS-CoV-2 Wk-521 strain; [11]): > 15 µM; viral RNA, compound present during the whole life cycle (SARS-CoV-2 [5]; 24 h): but not the negative control, Oxy133, clearly reduced viral RNA levels; viral RNA, compound present post-entry (SARS-CoV-2 [5]; added 2 h post-inoculation for 21 h): but not the negative control, Oxy133, clearly reduced viral RNA levels |
